Among the data in patent US6713269B2, “Methods for identifying potential therapeutic agents for treatment of osteoporosis using mitogenic indices” (co.don Aktiengesellschaft, priority 1995, dated 2004) are Absorbance mean value values, retold here.

This test concerns human osteoblast precursor cells. Description: Cell proliferation rate under the influence of growth factors, using bromodeoxyuridine incorporation (BrdU incorporation). As to conditions: 54 h incubation + 18 h BrdU labelling, OD at 405 nm. The class given is cell-based. On the procedure:
3,000 osteoblastic cells from fractions t1 to 2 up to the second passage, recovered from osteoporotic patients (OP cells), per well of a 96-well microwell plate were incubated in the presence of 10% FCS and 10% inactivated human control serum in a cell culture medium (α-MEM and HAM-S F12 medium […]) for 48 h, 120 h and 192 h. In parallel, 3,000 osteoblastic cells from non-osteoporotic patients were incubated under the same conditions. The number of intact cells was determined by means of trypan blue staining and counting in a counting chamber. 4. Determination of the cell proliferation rate under the influence of the three growth factors 1, 2 and 3 using bromodeoxyuridine incorporation (BrdU incorporation) Growth factor 1 =TGF-β2
Cells from fraction 1 and/or 2 of each punched-out bone piece up to the 2nd passage were used in the proliferation test.
3 ×10^3 cells from the first and/or second passage per well of a 96-well plate and 200 μl of medium were used.
The cells were cultivated for three days under the conditions previously described and subsequently cultivated further for one day in medium with no serum until subconfluence was reached.
Thereafter, the three growth factors 1, 2 and 3 were added to the cells at four different final concentrations (100, 10, 1, and 0.1 ng/ml medium).
Cells in a medium containing 10% FKS and in a medium containing 5% Ultroser served as controls.
Triplets were set up for all concentrations and controls.
Six wells including cells, to which no bromodeoxyuridine had been added during the proliferation test served as blank controls.
After 54 hours of incubation with the growth factors, the proliferation test (5-Bromo-2′-deoxyuridine Labeling and Detection Kit III by Boehringer Mannheim) was initiated by adding 20 μl of labelling solution diluted 1:90 in 1% BSA medium and subsequent incubation for 18 hours.
The proliferation test was conducted according to the manufacturer's instructions.
Evaluation of the proliferation test was effected by measuring the optical density (OD) at 405 nm in an ELISA reader. After 60 minutes of color development, the absorbance was measured 12 times at intervals of 5 minutes.

In the case of “IGF II: protein growth factor 3 (insulin-like growth factor II)”, the Absorbance mean value was found to be 0.148 (0.1 ng/ml medium), 0.150 (1 ng/ml medium), 0.139 (10 ng/ml medium) and 0.140 (100 ng/ml medium).

For “IGF I: protein growth factor 2 (insulin-like growth factor I)”, the Absorbance mean value is, setting by setting: (0.1 ng/ml medium) 0.151; (1 ng/ml medium) 0.148; (10 ng/ml medium) 0.140; (100 ng/ml medium) 0.140.
